Columns and labels:
[1] = Stability of human ghrelin in 0.1M HCl and Mcllvain buffer solutions of various pH at 25°C (Example 2, HPLC peak area ratio); type: physicochemical; details: human ghrelin 0.5 mg/mL in Mcllvain buffer
Method: Human ghrelin was dissolved in the following aqueous solutions in the concentration of about 0.15 μmol/mL (0.5 mg/mL).
0.1M HCl aqueous solution (pH: 1.1)
The pH was adjusted with 0.1M citric aqueous acid and 0.2M dibasic sodium phosphate aqueous solution.
Each solution were stored at 25±2° C. for 8, 24, 48 and 72 hours respectively, and the obtained solutions were detected by HPLC analysis in comparison to the solutions before storage. […] No significant changes of pH in solution before storage and after storage were observed.

[2] = Stability of human ghrelin in Britton-Robinson buffer solutions of various pH at 40°C (Example 3); type: physicochemical; details: pH of 3.1, 4.0, 5.0 and 6.0, 40±1°C, storage time not stated, target value 85%
Method: Human ghrelin, which is one of the ghrelins, was dissolved in the Britton-Robinson buffer solutions which is adjusted by combining 0.04M phosphoric acid-acetic acid-boric acid aqueous solution and 0.2M sodium hydrate aqueous solution in appropriate ratio, having pH of 2.1, 3.1, 4.0, 5.0, 6.0, 7.0 and 7.9 to obtain an aqueous solution containing human ghrelin in the concentration of about 0.15 μmol/mL (0.5 mg/mL). The obtained solution was filled in brownish glass ampoules and the ampoules were sealed with fire. For the calculation of kinetic constant, the certain degrees of degradation products have to be occurred in the aqueous solution of the ghrelins, and therefore, the ampoules were stored at 40±1° C., which was severe conditions for storage. The concentration (residual ratio) of human ghrelin was conducted by HPLC with time. At the same time, the pH of the solution was measured and it was confirmed that there was no significant changes of pH in solution.
The kinetic constants in each pH solution were calculated from the sequential change of the residual ratio, and the results were shown in FIG. 2.

[3] = Stability of human ghrelin in citrate buffer solutions, 40°C/2 weeks (Example 4); type: physicochemical
Method: The obtained solutions were filled in brownish glass ampoules and the ampoules were sealed with fire, then, each ampoules were stored at 40±1° C. for 2 weeks. After storage for 2 weeks, the HPLC analysis of the solutions was conducted to calculate the residual ratio from the concentration of human ghrelin. The change of pH value was also measured.

[4] = Stability of human ghrelin in pH-adjusted purified water at 25°C (Example 7); type: physicochemical; details: for Peak area ratio to total peak area: 25±2°C
Method: Human ghrelin was dissolved in the purified water with about 0.03 μmol/mL (0.1 mg/mL). […] This solution was divided into quarter, and one portion was kept alone and the pH values of the remaining three portions were adjusted to pH 1.8 (with 17 mM of hydrochloric acid), pH 3.9 (with 0.20 mM of hydrochloric acid) and pH 7.8 (with 0.24 mM of sodium hydroxide) respectively, by adding along with hydrochloric acid or sodium hydroxide aqueous solution.

[5] = Lyophilized powder for in situ preparation: solubility, content and pH after redissolving (Example 11); details: solution just after preparation, before lyophilization
Method: Human ghrelin was dissolved in 5% mannitol-0.05M glycine hydrochloride buffer solution (pH 3.5) with about 0.3 nmol/mL (1.0 μg/mL) concentration, and the human ghrelin concentration of this solution just after preparation was measured by HPLC method, and pH value of this solution was also measured. […] Then, this solution was lyophilized at −25° C. for 24 hours in vacuo, and the obtained powder was further dried at 20° C. for 24 hours in vacuo.

[6] = human ghrelin 0.5 mg/mL in citrate buffer solution pH 3.5, after storage for 40° C./2 weeks
[7] = human ghrelin 0.5 mg/mL in citrate buffer solution pH 3.5, just after preparation
[8] = human ghrelin 0.5 mg/mL in citrate buffer solution pH 4.0, after storage for 40° C./2 weeks
[9] = human ghrelin 0.5 mg/mL in citrate buffer solution pH 4.0, just after preparation
[10] = human ghrelin 0.5 mg/mL in citrate buffer solution pH 4.5, after storage for 40° C./2 weeks
[11] = human ghrelin 0.5 mg/mL in citrate buffer solution pH 4.5, just after preparation
[12] = human ghrelin 0.5 mg/mL in citrate buffer solution pH 5.0, after storage for 40° C./2 weeks
[13] = human ghrelin 0.5 mg/mL in citrate buffer solution pH 5.0, just after preparation

Peak area ratio to total peak area ([1]; pH 6, 25±2°C, 72 hr. after): 96.92% | pH observed ([1]; pH 6, 25±2°C, 72 hr. after): 6.0 | Peak area ratio to total peak area ([1]; pH 6, 25±2°C, before storage): 99.07% | pH observed ([1]; pH 6, 25±2°C, before storage): 6.0 | Peak area ratio to total peak area ([1]; pH 7, 25±2°C, 8 hr. after): 98.15% | pH observed ([1]; pH 7, 25±2°C, 8 hr. after): 7.0 | Peak area ratio to total peak area ([1]; pH 7, 25±2°C, 24 hr. after): 96.18% | pH observed ([1]; pH 7, 25±2°C, 24 hr. after): 7.0 | Peak area ratio to total peak area ([1]; pH 7, 25±2°C, 24 hr. after, listed as human ghrelin): less than 98% | Peak area ratio to total peak area ([1]; pH 7, 25±2°C, 48 hr. after): 93.44% | pH observed ([1]; pH 7, 25±2°C, 48 hr. after): 7.0 | Peak area ratio to total peak area ([1]; pH 7, 25±2°C, 72 hr. after): 90.75% | pH observed ([1]; pH 7, 25±2°C, 72 hr. after): 7.0 | Peak area ratio to total peak area ([1]; pH 7, 25±2°C, before storage): 98.97% | pH observed ([1]; pH 7, 25±2°C, before storage): 7.0 | Peak area ratio to total peak area ([1]; pH 8, 25±2°C, 8 hr. after): 94.73% | pH observed ([1]; pH 8, 25±2°C, 8 hr. after): 7.9 | Peak area ratio to total peak area ([1]; pH 8, 25±2°C, 24 hr. after): 87.32% | pH observed ([1]; pH 8, 25±2°C, 24 hr. after): 7.9 | Peak area ratio to total peak area ([1]; pH 8, 25±2°C, 48 hr. after): 76.95% | pH observed ([1]; pH 8, 25±2°C, 48 hr. after): 7.9 | Peak area ratio to total peak area ([1]; pH 8, 25±2°C, 72 hr. after): 68.30% | pH observed ([1]; pH 8, 25±2°C, 72 hr. after): 7.9 | Peak area ratio to total peak area ([1]; pH 8, 25±2°C, before storage): 98.61% | pH observed ([1]; pH 8, 25±2°C, before storage): 8.0 | Residual ratio [2]: more than 87% | Residual ratio [3, 6]: 89% | pH observed [3, 6]: 3.5 | Residual ratio [3, 7]: 100% | pH observed [3, 7]: 3.6 | Residual ratio [3, 8]: 88% | pH observed [3, 8]: 4.0 | Residual ratio [3, 9]: 100% | pH observed [3, 9]: 4.0 | Residual ratio [3, 10]: 86% | pH observed [3, 10]: 4.4 | Residual ratio [3, 11]: 100% | pH observed [3, 11]: 4.5 | Residual ratio [3, 12]: 85% | pH observed [3, 12]: 4.9 | Residual ratio [3, 13]: 100% | pH observed [3, 13]: 5.0 | Peak area ratio to total peak area ([4]; human ghrelin 0.1 mg/mL in purified water adjusted to pH 1.8 with hydrochloric acid, 1 day after): 97.68% | Peak area ratio to total peak area ([4]; human ghrelin 0.1 mg/mL in purified water adjusted to pH 1.8 with hydrochloric acid, 1 day after, listed as human ghrelin): less than 98% | Peak area ratio to total peak area ([4]; human ghrelin 0.1 mg/mL in purified water adjusted to pH 1.8 with hydrochloric acid, 3 days after): 95.01% | Peak area ratio to total peak area ([4]; human ghrelin 0.1 mg/mL in purified water adjusted to pH 1.8 with hydrochloric acid, before storage): 99.16% | Peak area ratio to total peak area ([4]; human ghrelin 0.1 mg/mL in purified water adjusted to pH 3.9 with hydrochloric acid, 1 day after): 99.19% | Peak area ratio to total peak area ([4]; human ghrelin 0.1 mg/mL in purified water adjusted to pH 3.9 with hydrochloric acid, 3 days after): 99.14% | Peak area ratio to total peak area ([4]; human ghrelin 0.1 mg/mL in purified water adjusted to pH 3.9 with hydrochloric acid, before storage): 99.21% | Peak area ratio to total peak area ([4]; human ghrelin 0.1 mg/mL in purified water adjusted to pH 7.8 with sodium hydroxide, 1 day after): 94.78% | Peak area ratio to total peak area ([4]; human ghrelin 0.1 mg/mL in purified water adjusted to pH 7.8 with sodium hydroxide, 1 day after, listed as human ghrelin): less than 98% | Peak area ratio to total peak area ([4]; human ghrelin 0.1 mg/mL in purified water adjusted to pH 7.8 with sodium hydroxide, 3 days after): 87.84% | Peak area ratio to total peak area ([4]; human ghrelin 0.1 mg/mL in purified water adjusted to pH 7.8 with sodium hydroxide, before storage): 98.85% | Peak area ratio to total peak area ([4]; human ghrelin 0.1 mg/mL in purified water, pH 4.7 (not adjusted), 1 day after): 99.12% | Peak area ratio to total peak area ([4]; human ghrelin 0.1 mg/mL in purified water, pH 4.7 (not adjusted), 3 days after): 98.94% | Peak area ratio to total peak area ([4]; human ghrelin 0.1 mg/mL in purified water, pH 4.7 (not adjusted), before storage): 99.20% | pH of the solution ([4]; human ghrelin dissolved in purified water, about 0.03 μmol/mL (0.1 mg/mL)): 4.7 | pH value of the solution [5]: 3.5
Compound: CCCCCCCC(=O)OC[C@H](NC(=O)[C@H](CO)NC(=O)CN)C(=O)N[C@@H](Cc1ccccc1)C(=O)N[C@@H](CC(C)C)C(=O)N[C@@H](CO)C(=O)N1CCC[C@H]1C(=O)N[C@@H](CCC(=O)O)C(=O)N[C@@H](Cc1c[nH]cn1)C(=O)N[C@@H](CCC(N)=O)C(=O)N[C@@H](CCCNC(=N)N)C(=O)N[C@H](C(=O)N[C@@H](CCC(N)=O)C(=O)N[C@@H](CCC(N)=O)C(=O)N[C@@H](CCCNC(=N)N)C(=O)N[C@@H](CCCCN)C(=O)N[C@@H](CCC(=O)O)C(=O)N[C@@H](CO)C(=O)N[C@@H](CCCCN)C(=O)N[C@@H](CCCCN)C(=O)N1CCC[C@H]1C(=O)N1CCC[C@H]1C(=O)N[C@@H](C)C(=O)N[C@@H](CCCCN)C(=O)N[C@@H](CC(C)C)C(=O)N[C@@H](CCC(N)=O)C(=O)N1CCC[C@H]1C(=O)N[C@@H](CCCNC(=N)N)C(=O)O)C(C)C [Human ghrelin]

Reference: patent US8440628B2, “Medical compositions containing ghrelin” (Daiichi Sankyo Company, Limited, priority 2002, dated 2013)
